According to PubChem BioAssay (NCI):
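The compound was tested at five concentrations on cells cultured in 96-well plates, with a 48-hour exposure period. GI50 is the concentration that inhibits growth by half. Definition used: TGI = concentration required for complete inhibition of growth.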

Tests used:
Experiment in all cases: NCI tumour cell line growth inhibition, 48 h
[1] = system: MOLT-4 leukemia
[2] = system: HOP-92 NSCLC
[3] = system: NCI-H522 lung
[4] = system: BT-549 breast
[5] = system: HT29 colon
[6] = system: ACHN renal
[7] = system: CCRF-CEM leukemia
[8] = system: COLO 205 colon
[9] = system: LOX IMVI melanoma
[10] = system: RXF 393 renal

Row | SMILES | GI50 [1] | TGI [1] | GI50 [2] | TGI [2] | GI50 [3] | TGI [3] | GI50 [4] | TGI [4] | GI50 [5] | TGI [5] | GI50 [6] | TGI [6] | GI50 [7] | TGI [7] | TGI [8] | GI50 [9] | TGI [9] | TGI [10] | GI50 [8] | GI50 [10]
1 | COc1cc(C2C(C(=O)OCc3ccccc3)=C(C)NC(C)=C2C(=O)OCc2ccccc2)cc(OC)c1OC | 1.31 µM | > 100 µM | 3.08 µM | 37.9 µM | 3.57 µM | > 100 µM | 3.3 µM | > 100 µM | 3.35 µM | > 100 µM | 2.79 µM | > 100 µM | – | – | – | – | – | – | – | –
2 | COc1ccc2c([nH]c3cc(O)c(C)cc32)c1CC=C(C)C | 4.94 µM | 15.9 µM | 8.03 µM | > 25 µM | 5.92 µM | 17.3 µM | – | – | – | > 25 µM | 9.35 µM | > 25 µM | 5.4 µM | 17.5 µM | > 25 µM | 4.36 µM | 7.8 µM | – | – | –
3 | N#CC(C(=O)C(=O)Nc1ccc(Cl)c(Cl)c1)c1ccc(Cl)cc1 (stereo not drawn) | – | > 100 µM | – | 99.2 µM | – | 65.5 µM | – | – | – | > 100 µM | – | > 100 µM | – | > 100 µM | > 100 µM | – | 31.1 µM | > 100 µM | – | –
4 | CCOC(=O)/C(=C/c1ccc(Cl)cc1)N(CC)CC | – | > 100 µM | – | > 100 µM | – | > 100 µM | – | – | – | > 100 µM | – | > 100 µM | – | > 100 µM | > 100 µM | – | > 100 µM | – | – | –
5 | O=c1nc(-c2ccccc2)scc1-c1ccccc1 | – | > 100 µM | – | > 100 µM | – | > 100 µM | – | – | – | > 100 µM | – | > 100 µM | – | > 100 µM | > 100 µM | – | – | > 100 µM | – | –
6 | CCC[CH2][Ge]([CH2]CCC)([CH2]CCC)[O]C(=O)C(OC(C)=O)c1ccccc1 (stereo not drawn) | 0.153 µM | > 100 µM | 0.438 µM | 12.3 µM | 0.304 µM | 8.88 µM | – | – | 0.742 µM | 13.8 µM | 2.76 µM | 19.8 µM | 0.229 µM | > 26.1 µM | 20.9 µM | 0.535 µM | 9.14 µM | 1.44 µM | 6.37 µM | 0.102 µM
7 | Cc1cn2c(/C=N/N=C(N)N)c(-c3cc(Cl)sc3Cl)nc2s1 | 1.17 µM | 2.06 µM | – | – | – | – | – | – | 1.72 µM | 12.1 µM | 0.908 µM | 1.63 µM | 0.76 µM | 1.57 µM | – | – | – | – | – | –
8 | CC1=C2[C@@H](c3ccccc3)C3C=CC2(c2ccccc23)N(C(=O)Nc2cccc3ccccc23)C1=O (stereo partly drawn) | – | > 100 µM | – | > 100 µM | – | – | – | – | – | – | – | > 100 µM | – | > 100 µM | > 100 µM | – | > 100 µM | – | – | –
9 | Cc1ccc(C(O)/C(=N/N)c2nc3ccc([N+](=O)[O-])cc3[nH]c2=O)cc1 (stereo not drawn) | – | > 100 µM | – | > 100 µM | – | > 100 µM | – | – | – | > 100 µM | – | > 100 µM | – | > 100 µM | > 100 µM | – | > 100 µM | > 100 µM | – | –
10 | C=C(CN(C)C)C(=O)c1ccc(OC)cc1 | – | 2.06 µM | – | 3.28 µM | – | – | – | 18.1 µM | – | 25.1 µM | – | 3.01 µM | – | 1.08 µM | 1.39 µM | – | 25.4 µM | 24.9 µM | – | –
11 | CCc1cccc(CC)c1NC(=O)c1ccn2c1CCc1cnc(Nc3ccc(N4CCN(C)CC4)cc3OC)nc1-2 | – | – | 1.95 µM | 9.66 µM | 1.81 µM | 4.32 µM | 2.23 µM | 6.63 µM | 1.26 µM | 9.36 µM | 2.31 µM | 12.4 µM | 0.213 µM | 6.6 µM | 2.36 µM | – | – | 3.08 µM | 0.0231 µM | 1.58 µM
12 | C[CH2][Sn]([Cl])([CH2]C)[CH2]C | 0.369 µM | 2.96 µM | 0.186 µM | 0.689 µM | 0.705 µM | 3.15 µM | – | – | 0.439 µM | 2.62 µM | 1.46 µM | 8.27 µM | 0.368 µM | 3.12 µM | 3.8 µM | 0.386 µM | 2.06 µM | – | 1.48 µM | –
13 | C[C@]12CC/C(=N\OC(=O)Nc3ccccc3)C=C1CC[C@@H]1C2CC[C@@]2(C)C1CC[C@@H]2OC(=O)Nc1ccccc1 (stereo partly drawn) | – | > 100 µM | – | > 100 µM | – | – | – | – | – | > 100 µM | – | > 100 µM | – | > 100 µM | > 100 µM | – | > 100 µM | – | – | –
14 | N#Cc1nc(Nc2ccc(Cl)cc2)sc1N | – | 29.2 µM | – | 52.1 µM | – | 11.3 µM | – | – | – | > 51.9 µM | – | 23.6 µM | – | > 100 µM | 47.7 µM | – | 13.7 µM | – | – | –
15 | COc1cccc(N2C(=O)[C@H]3[C@H]4CC(C(C)(C)C)CC[C@H]4c4c([nH]c5ccccc45)[C@H]3C2=O)c1 (stereo partly drawn) | – | 25.1 µM | – | – | – | 45.7 µM | – | – | – | 92.1 µM | – | – | – | 29.7 µM | 32.2 µM | – | 32.7 µM | 42 µM | – | –
16 | C/C=C/C=C\C(=O)C1c2cccc(O)c2C(=O)c2c(O)cc(C)cc21 (stereo not drawn) | – | 8.19 µM | – | 3.33 µM | – | 3.06 µM | – | – | – | 4.21 µM | – | 2.66 µM | – | > 100 µM | 2.99 µM | – | 3.38 µM | 2.81 µM | – | –
17 | CO[C@]12CCC(=O)N1C=Cc1c2[nH]c2ccccc12 | – | > 100 µM | – | > 100 µM | – | – | – | – | – | > 100 µM | – | > 100 µM | – | > 100 µM | > 100 µM | – | > 100 µM | > 100 µM | – | –
18 | COC(=O)C1=C(C)N(NC(=O)c2cccc(Cl)c2)C(C)(O)C12CCOC2=O (stereo not drawn) | – | > 100 µM | – | – | – | > 100 µM | – | – | – | > 100 µM | – | > 100 µM | – | – | – | – | > 100 µM | – | – | –
19 | CCOC1=C2C(C)(CCC3[C@@]4(C)C=CC(=O)C(C)(C)C4CC(O)[C@@]23C)C(c2ccoc2)C1=O (stereo partly drawn) | – | 40.4 µM | – | 41.9 µM | – | – | – | – | – | 29.2 µM | – | 37.4 µM | – | 38.9 µM | 29.3 µM | – | 29.1 µM | 34 µM | – | –
20 | O=[N+]([O-])c1cc([N+](=O)[O-])c(C(Cl)C(Cl)c2ccccc2)cc1C(Cl)C(Cl)c1ccccc1 (stereo not drawn) | – | > 23.3 µM | – | 3.26 µM | – | 3.39 µM | – | – | – | 4.67 µM | – | 3.55 µM | – | 5.96 µM | 3.18 µM | – | 3.57 µM | 2.73 µM | – | –
21 | NC(=O)OCC(COc1ccc(Cl)cc1)OC(=O)c1cc([N+](=O)[O-])cc([N+](=O)[O-])c1 (stereo not drawn) | – | > 100 µM | – | > 100 µM | – | > 100 µM | – | – | – | > 100 µM | – | > 100 µM | – | > 100 µM | > 100 µM | – | 34.4 µM | > 100 µM | – | –
